Test results reported in US10570117B2, “Phenylimidazole compound” (Otsuka Pharmaceutical Factory, Inc., priority 2015, dated 2020).
Converted amounts (≈) assume the structure as drawn. Read-outs that look alike come from different tables or passages of the source.

What was measured:
[1] = Solubility in gastric juice or intestinal juice model fluid (precipitation method using DMSO); type: physicochemical; details: room temperature; for Solubility (μg/mL) 1st fluid / Solubility (μg/mL) 2nd fluid: 24 hours
Description: Solubility in Gastric Juice or Intestinal Juice Model Fluid
Measurement was performed by a precipitation method using DMSO. Specifically, each of the dimethyl sulfoxide (DMSO) solutions of the compounds was individually added to 1st fluid for Disintegration Test of Japanese Pharmacopoeia (pH: 1.2) or 2nd fluid for Disintegration Test of Japanese Pharmacopoeia (pH: 6.8), and the mixtures were stirred by shaking at room temperature for 24 hours. Subsequently, insoluble substances in each mixture were removed by filtration, and the UV absorption of each filtrate was measured. The obtained values were individually applied to the calibration curves of the compounds prepared in advance to calculate the concentrations of the compounds dissolved (μg/mL).

[2] = tested on: lipoprotein lipase (LPL) gene; assay: LPL mRNA elevating action (RT-PCR quantification of LPL mRNA in C2Cl2 cells); type: cell-based, mouse; details: compound 10 μM, ratio relative to the amount of LPL mRNA in cells with DMSO only; for fold induction at 10 µM: Mus musculus, 24 h, read-out: Rate of increase in LPL mRNA
Description: LPL mRNA Elevating Action
C2Cl2 cells (cell strain derived from striated muscle of mouse) were seeded in 96-well plates using a DMEM medium (Gibco) (containing 2 mM L-glutamine and 10% fetal bovine serum). After the cells were grown, the medium was removed. Subsequently, media obtained by adding dimethyl sulfoxide (DMSO) solutions of the compounds to the same medium as described above to a concentration of 10 μM were individually added to the cells and allowed to stand for 24 hours. The compound-containing media were removed, and the plates were washed with phosphate buffered saline. Thereafter, the remaining cells were lysed and subjected to a reverse transcription polymerase chain reaction (RT-PCR reaction) to obtain cDNA. Primers specific to lipoprotein lipase (LPL) gene, a necessary enzyme, etc., were added to the obtained cDNA. The mixture was set in 7500 Fast Real Time PCR System produced by Applied Biosystem to perform a PCR reaction (20 cycles) and the amount of LPL mRNA amplified was quantified. The LPL mRNA elevating action of each compound in the test cells was indicated as the ratio relative to the amount of LPL mRNA in cells allowed to stand in a medium to which only DMSO was added, with the amount being defined as 1.
As Comparative Example 1, a test was performed in the same manner as above, using a compound disclosed as the compound of Example 57 in WO2010/090200.

[3] = pH 1.2, simulated gastric fluid, kinetic from dmso stock, 1st fluid for Disintegration Test of Japanese Pharmacopoeia (pH: 1.2), read-out: Solubility (μg/mL) 1st fluid
[4] = pH 6.8, kinetic from dmso stock, 2nd fluid for Disintegration Test of Japanese Pharmacopoeia (pH: 6.8), read-out: Solubility (μg/mL) 2nd fluid
[5] = 1st fluid for Disintegration Test of Japanese Pharmacopoeia (pH: 1.2)
[6] = 2nd fluid for Disintegration Test of Japanese Pharmacopoeia (pH: 6.8)

SMILES | solubility at 24 h [1, 3] [µg/mL] | solubility at 24 h [1, 4] [µg/mL] | melting point | Solubility (μg/mL) 1st fluid [1, 5] [µg/mL] | Solubility (μg/mL) 2nd fluid [1, 6] [µg/mL] | fold induction at 10 µM [2] | Rate of increase in LPL mRNA ([2]; 24 hours)
COc1cc(OCc2ccc(C(F)(F)F)nc2)ccc1-c1cnc(C2CCC(F)(F)C2)[nH]1 (stereo not drawn) [Example 3] | 87.5 (≈ 193 µM) | 1 (≈ 2.21 µM) |  |  |  | 2.48 | 
COc1cc(OCc2ccc(C(F)(F)F)nc2)c(C)cc1-c1cnc(C2CCC(F)(F)CC2)[nH]1 [Example 12] | 15.6 (≈ 32.4 µM) | < 1.7 |  |  |  | 2.23 | 
COc1c(OCc2ccc(C(F)(F)F)nc2)ccc(-c2cnc(C3CCC(F)(F)CC3)[nH]2)c1OC [Example 14] | > 99 | < 0.4 |  |  |  | 5.42 | 
COc1cc(OCc2ccc(C(F)(F)F)nc2)ccc1-c1nc(C2CCCCC2)[nH]c1C [Example 48] | > 89 | 80.8 (≈ 181 µM) |  |  |  | 3.02 | 
COc1cc(-c2c[nH]c(C3CCCCCC3)n2)ccc1OCc1ccc(C(F)(F)F)cn1 [Example 72] | > 116 | 1.8 (≈ 4.04 µM) |  |  |  | 2.75 | 
COc1cc(OCc2ncc(Br)cc2F)ccc1-c1cnc(-c2ccc(F)nc2)[nH]1 [Example 111, 5-bromo-3-fluoro-2-[[4-(2-(6-fluoropyridin-3-yl)-1H-imidazol-5-yl)-3-methoxyphenoxy]methyl]pyridine] | 9.4 (≈ 19.9 µM) | 1.2 (≈ 2.54 µM) |  |  |  | 2.46 | 
COc1cc(OC(C)c2ncc(Br)cc2F)ccc1-c1cnc(-c2ccc(F)nc2)[nH]1 (stereo not drawn) [Example 128] | 94.9 (≈ 195 µM) | 4 (≈ 8.21 µM) |  |  |  | 2.28 | 
COc1cc(OCc2ncc(Cl)cc2C(F)(F)F)ccc1-c1cnc(-c2ccc(F)nc2)[nH]1 [Example 138] |  |  |  |  |  | 2.97 | 
COc1cc(OCc2ccc(C(F)(F)F)nc2)ccc1-c1cn(C)c(-c2ccc(F)nc2)n1 [Example 163] | > 92 | 1.4 (≈ 3.05 µM) | 163 to 165 °C |  |  |  | 
COc1cc(-c2[nH]c(C3CCCC(F)(F)C3)nc2Br)ccc1OCc1ccc(C(F)(F)F)cn1 (stereo not drawn) [Example 171] |  |  |  | >109 | <1.9 |  | 2.89
COc1cc(OCc2ccc(C(F)(F)F)nc2)ccc1-c1[nH]c(C2CCC(F)(F)C2)nc1Cl (stereo not drawn) [Example 180] | 89.1 (≈ 183 µM) | 0.4 (≈ 0.82 µM) | 172 to 174 °C |  |  |  | 
COc1cc(OCc2ncccc2C#N)ccc1-c1[nH]c(C2CCC(F)(F)CC2)nc1Br [Example 184] | 96.3 (≈ 191 µM) | 5.8 (≈ 11.5 µM) | 160 to 161 °C |  |  |  | 
COc1cc(OCc2ccc(C(F)(F)F)nc2)c(C)cc1-c1[nH]c(C2CCC(F)(F)CC2)nc1Br [Example 187] | 75.6 (≈ 135 µM) | < 0.4 | 195 to 196 °C |  |  |  | 
COc1cc(OCc2ccc(C(F)(F)F)nc2)c(C)cc1-c1[nH]c(C2CCC(F)(F)CC2)nc1Cl [Example 192] | 22.6 (≈ 43.8 µM) | 0.6 (≈ 1.16 µM) | 175 to 178 °C |  |  |  | 
COc1cc(OCn2cccn2)ccc1-c1[nH]c(C2CCC(F)(F)CC2)nc1Cl [Example 196] | > 85 | < 7.5 | 182 to 184 °C |  |  |  | 
COc1cc(OCc2coc(C)n2)ccc1-c1[nH]c(C2CCC(F)(F)CC2)nc1Cl [Example 197] | > 88 | 25.7 (≈ 58.7 µM) | 130 to 131 °C |  |  |  | 
COc1cc(OCc2cnc(C)cn2)ccc1-c1nc(-c2ccc(Cl)nc2)[nH]c1Cl [Example 219] | 7.5 (≈ 17 µM) | < 1.6 |  |  |  | 2.42 | 
COc1cc(OCc2ccc(C(F)(F)F)nc2)ccc1-c1nc(-c2ccc(F)cn2)[nH]c1Cl [Example 226] | < 8.5 | 3.4 (≈ 7.1 µM) | 186 to 193 °C (dec.) |  |  |  | 
COc1cc(OCc2ccc(C(F)(F)F)nc2)ccc1-c1nc(-c2ccc(Cl)cn2)[nH]c1Cl [Example 228] | 9.7 (≈ 19.6 µM) | 2.6 (≈ 5.25 µM) | 193 to 196 °C |  |  |  | 
COc1cc(OC(C)c2ccc(C(F)(F)F)cc2)ccc1-c1[nH]c(-c2ccc(F)nc2)nc1Cl (stereo not drawn) [Example 236] | < 0.3 | 29.9 (≈ 60.8 µM) | 137 to 146 °C |  |  |  | 
COc1cc(OCc2ncc(F)cc2F)ccc1-c1[nH]c(-c2ccc(Cl)nc2)nc1Br [Example 246] | 15.6 (≈ 30.7 µM) | 5 (≈ 9.85 µM) | 190 to 193 °C |  |  |  | 
COc1cc(O[C@@H](C)c2ccc(C(F)(F)F)cc2)ccc1-c1[nH]c(-c2ccc(F)nc2)nc1Cl [Example 288] | < 0.3 | 23.4 (≈ 47.6 µM) | 137 to 139 °C |  |  |  | 
COc1cc(OCc2ccc(C(F)(F)F)nc2)ccc1-c1nc(-c2ccc(Cl)nc2)n(C)c1Br [Example 298] | 108 (≈ 196 µM) | 1.6 (≈ 2.89 µM) | 177 to 182 °C |  |  |  | 
COc1cc(OCc2ncc(C(F)(F)F)cc2F)ccc1-c1[nH]c(C2CC(F)(F)C2)nc1F [Example 401] |  |  |  |  |  | 2.9 | 
COc1cc(OCc2ncc(C(F)(F)F)cc2F)ccc1-c1cnc(-c2ccc(C)nc2)[nH]1 [Example 402] |  |  |  |  |  | 2.37 | 
COc1cc(-c2cnc(-c3ccc(C)nc3)[nH]2)ccc1OCc1ncc(C(F)(F)F)cc1F [Example 403] |  |  |  |  |  | 2.09 | 
COc1cc(OCc2ncc(C(F)(F)F)cc2F)ccc1-c1[nH]c(-c2ccc(C)nc2)nc1Cl [Example 404] |  |  |  |  |  | 3.26 | 
COc1cc(-c2[nH]c(-c3ccc(C)nc3)nc2Cl)ccc1OCc1ncc(C(F)(F)F)cc1F [Example 405] |  |  |  |  |  | 2.78 | 

Further lines, with some results ahead:

solubility at 24 h [1, 3] [µg/mL] | solubility at 24 h [1, 4] [µg/mL] | melting point | Solubility (μg/mL) 1st fluid [1, 5] [µg/mL] | Solubility (μg/mL) 2nd fluid [1, 6] [µg/mL] | SMILES | fold induction at 10 µM [2] | Rate of increase in LPL mRNA ([2]; 24 hours)
80.2 (≈ 175 µM) | 2.6 (≈ 5.67 µM) |  |  |  | COc1cc(OC(C)c2ccc(C(F)(F)F)cn2)ccc1-c1c[nH]c(-c2ccc(F)nc2)n1 (stereo not drawn) [Example 117] | 3.38 | 
104 (≈ 197 µM) | 3.6 (≈ 6.81 µM) |  |  |  | COc1cc(OCc2ccc(C(F)(F)F)cn2)ccc1-c1nc(-c2ccc(Cl)nc2)n(CC2CC2)c1C [Example 156] | 3.27 | 
> 98 | 0.6 (≈ 1.23 µM) | 172 to 174 °C |  |  | COCn1cc(-c2ccc(OCc3ccc(C(F)(F)F)cn3)cc2OC)nc1-c1ccc(F)nc1 [Example 166] |  | 
> 95 | < 0.3 | 186 to 190 °C |  |  | COc1cc(OCc2ccc(C(F)(F)F)cn2)ccc1-c1cn(C)c(-c2ccc(Cl)nc2)n1 [Example 168] |  | 
> 105 | < 0.4 | 176 to 178 °C |  |  | COc1cc(OCc2ccc(C(F)(F)F)cn2)ccc1-c1nc(-c2ccc(F)nc2)[nH]c1Br [Example 223] |  | 
 |  | 165 to 168 °C | 12 (≈ 24.3 µM) | <0.4 | COc1cc(OC(C)c2ccc(C(F)(F)F)cn2)ccc1-c1[nH]c(-c2ccc(F)nc2)nc1Cl (stereo not drawn) [Example 240] |  | 
90.2 (≈ 176 µM) | 11.7 (≈ 22.8 µM) | 116 to 131 °C |  |  | COc1cc(OCc2ncc(C(F)(F)F)cc2F)ccc1-c1[nH]c(-c2ccc(Cl)nc2)nc1Cl [Example 245] |  | 
96 (≈ 183 µM) | 4.2 (≈ 8.03 µM) | 144 to 154 °C |  |  | COc1cc(OCc2ncccc2C(F)(F)F)ccc1-c1[nH]c(-c2ccc(F)nc2)nc1Br [Example 275] |  | 
10.8 (≈ 21.1 µM) | 2.2 (≈ 4.31 µM) | 155 to 159 °C |  |  | COc1cc(OC(C)c2ncc(C(F)(F)F)cc2F)ccc1-c1[nH]c(-c2ccc(F)nc2)nc1Cl (stereo not drawn) [Example 289] |  | 
9.9 (≈ 20.1 µM) | 3.5 (≈ 7.1 µM) | 74 to 97 °C |  |  | COc1cc(O[C@@H](C)c2ccc(C(F)(F)F)nc2)ccc1-c1[nH]c(-c2ccc(F)nc2)nc1Cl [Example 291] |  | 
24.7 (≈ 46 µM) | 0.4 (≈ 0.744 µM) | 134 to 136 °C |  |  | COc1cc(OCc2ccc(C(F)(F)F)nc2)ccc1-c1c(Br)nc(-c2ccc(F)nc2)n1C [Example 305] |  | 
5.6 (≈ 11.4 µM) | < 0.4 | 138 to 140 °C |  |  | COc1cc(OCc2ccc(C(F)(F)F)nc2)ccc1-c1c(Cl)nc(-c2ccc(F)nc2)n1C [Example 311] |  | 
23.6 (≈ 47.9 µM) | < 0.4 | 142 to 144 °C |  |  | COc1cc(OCc2ccc(C(F)(F)F)cn2)ccc1-c1c(Cl)nc(-c2ccc(F)nc2)n1C [Example 312] |  | 
